Reference: the supplement of paper PMC11451515

Key:
Details in all cases: 48 h
NOMO1 [1] = experiment: cell viability relative to DMSO control; higher = less cytotoxic
Summary of the method: (§1)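 Viability, reported as a per-plate percentage of DMSO wells with cell-free wells as background, came from CellTiter-Glo One luminescence. Reading took place after 48 h at 37°C. Before that, NOMO1 or SEM (500 cells/well) or P12-Ichikawa (1000 cells/well) leukemia cells, adapted for at least four passages in each medium, were seeded in 1536-well plates (5 μl) and pin-dosed with library compounds in DMSO, 47 μM to 0.79 nM over 11 threefold points.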

P12-Ichikawa [2] = experiment: as above
Summary of the method: as §1

SEM cells [3] = experiment: as above
Summary of the method: as §1

NOMO1 [4] = experiment: AUC of viability dose-response curve (% viability x log10 dose units); higher = less sensitive
Summary of the method: (§2)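 Seeding of medium-adapted leukemia cells was at 500 or 1000 cells/well in 1536-well plates, followed by 48 h at 37°C with library compounds in DMSO at 11 threefold doses from 47 μM to 0.79 nM. CellTiter-Glo One luminescence was normalised per plate to DMSO and cell-free wells and fitted as a four-parameter log-logistic function of log10 dose. Area under the curve was integrated by trapezoidal rule, with curves exceeding full viability scaled and curves failing quality control removed.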

P12-Ichikawa [5] = experiment: as above
Summary of the method: as §2

SEM cells [6] = experiment: as above
Summary of the method: as §2

CN[S+](=O)([O-])CCc1ccc2[nH]cc(C3CCN(C)CC3)c2c1
cell viability [%]
Details	NOMO1 [1]	P12-Ichikawa [2]	SEM cells [3]
HPLM + 10% dialyzed FBS, 0.000781 µM	91.2	95.6	78.4
HPLM + 10% dialyzed FBS, 0.00234 µM	95.9	98.2	74.3
HPLM + 10% dialyzed FBS, 0.00702 µM	91.3	99.7	87.2
HPLM + 10% dialyzed FBS, 0.0211 µM	114	99.5	98.7
HPLM + 10% dialyzed FBS, 0.0632 µM	112	101	97.7
HPLM + 10% dialyzed FBS, 0.19 µM	107	103	108
HPLM + 10% dialyzed FBS, 0.569 µM	106	108	91.8
HPLM + 10% dialyzed FBS, 1.71 µM	101	102	99.7
HPLM + 10% dialyzed FBS, 5.12 µM	98.6	112	109
HPLM + 10% dialyzed FBS, 15.4 µM	108	103	111
HPLM + 10% dialyzed FBS, 46.1 µM	107	105	110
RPMI 5 mM glucose + 10% FBS, 0.000781 µM	83	91.6	84
RPMI 5 mM glucose + 10% FBS, 0.00234 µM	84.2	91.6	67.4
RPMI 5 mM glucose + 10% FBS, 0.00702 µM	91.3	84.7	90.8
RPMI 5 mM glucose + 10% FBS, 0.0211 µM	86.6	96	101
RPMI 5 mM glucose + 10% FBS, 0.0632 µM	99.7	101	94.1
RPMI 5 mM glucose + 10% FBS, 0.19 µM	89.5	100	103
RPMI 5 mM glucose + 10% FBS, 0.569 µM	87.6	101	92.5
RPMI 5 mM glucose + 10% FBS, 1.71 µM	92.7	107	105
RPMI 5 mM glucose + 10% FBS, 5.12 µM	102	102	110
RPMI 5 mM glucose + 10% FBS, 15.4 µM	87.8	98	99.7
RPMI 5 mM glucose + 10% FBS, 46.1 µM	96.4	101	88.8
RPMI 5 mM glucose + 10% dialyzed FBS, 0.000781 µM	91.5	87.8	87
RPMI 5 mM glucose + 10% dialyzed FBS, 0.00234 µM	83.4	94.2	75.4
RPMI 5 mM glucose + 10% dialyzed FBS, 0.00702 µM	90.3	96.4	99.6
RPMI 5 mM glucose + 10% dialyzed FBS, 0.0211 µM	95.4	94.4	86.6
RPMI 5 mM glucose + 10% dialyzed FBS, 0.0632 µM	93.3	99.9	93.3
RPMI 5 mM glucose + 10% dialyzed FBS, 0.19 µM	104	99	99.4
RPMI 5 mM glucose + 10% dialyzed FBS, 0.569 µM	105	107	90.9
RPMI 5 mM glucose + 10% dialyzed FBS, 1.71 µM	96.2	96.3	97
RPMI 5 mM glucose + 10% dialyzed FBS, 5.12 µM	102	97.4	84.2
RPMI 5 mM glucose + 10% dialyzed FBS, 15.4 µM	85.3	101	92.9
RPMI 5 mM glucose + 10% dialyzed FBS, 46.1 µM	89.3	98.9	85.5

AUC of viability dose-response curve
Details	NOMO1 [4]	P12-Ichikawa [5]	SEM cells [6]
HPLM + 10% dialyzed FBS	454	460	428
RPMI 5 mM glucose + 10% FBS	435	460	452
RPMI 5 mM glucose + 10% dialyzed FBS	450	466	432
